Experimental data reported in PubChem BioAssay (NCI).
“And” between values parts separate entries of the source, which are not always exact repeats. Equal entries are not always repeated.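 Test compounds were applied to cells in 96-well plates for 48 hours at 5 doses. GI50 marks 50% less growth. The concentration for full growth arrest is given as TGI.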

Tests used:
Experiment in all cases: growth of human tumour cells (NCI), 48 h
HOP-92 NSCLC = system: HOP-92 NSCLC
RXF 393 renal = system: RXF 393 renal
HCT-15 colon = system: HCT-15 colon
MDA-MB-231 breast = system: MDA-MB-231 breast
ACHN renal = system: ACHN renal
SN12C renal = system: SN12C renal
PC-3 prostate = system: PC-3 prostate
K-562 leukemia = system: K-562 leukemia
UACC-62 melanoma = system: UACC-62 melanoma
CCRF-CEM leukemia = system: CCRF-CEM leukemia

Row | Structure (SMILES) | GI50 (HOP-92 NSCLC) | TGI (HOP-92 NSCLC) | GI50 (RXF 393 renal) | TGI (RXF 393 renal) | GI50 (HCT-15 colon) | TGI (HCT-15 colon) [µM] | GI50 (MDA-MB-231 breast) [µM] | TGI (MDA-MB-231 breast) [µM] | GI50 (ACHN renal) | TGI (ACHN renal) | GI50 (SN12C renal) | TGI (SN12C renal) [µM] | GI50 (PC-3 prostate) | TGI (PC-3 prostate) | GI50 (K-562 leukemia) | TGI (K-562 leukemia) [µM] | GI50 (UACC-62 melanoma) | TGI (UACC-62 melanoma) | GI50 (CCRF-CEM leukemia) | TGI (CCRF-CEM leukemia) [µM]
1 | Fc1ccc(Nc2ccc3cc(OCCCN4CCOCC4)ccc3n2)cc1F | 2.63 µM | 7.9 µM | 2.45 µM | 7.32 µM | 2.55 µM | 10.4 | 1.96 | 4.68 | 4.2 µM | 30.7 µM | 9.77 µM | > 100 | 4.29 µM | 50 µM | 2.78 µM | > 100 | 1.99 µM | 4.94 µM | 7.93 µM | > 100
2 | N#C/C(=C\c1ccc(Cl)cc1)n1nnc2cc(F)c(F)cc21 | 1.07 µM | 2.56 µM | 1.46 µM | 3.11 µM | 1.42 µM | 3.55 | 1.85 | 4.47 | 1.64 µM | 3.02 µM | 1.89 µM | 4.02 | 1.61 µM | 3.53 µM | 2.19 µM | > 100 | 1.8 µM | 3.96 µM | 2.01 µM | > 100
3 | COc1cc(N)ccc1Nc1c2ccccc2nc2ccccc12 | 4.59 µM | 23 µM | 11.5 µM | 27 µM | 2.86 µM | 12 | 13.1 | 28.6 | 3.36 µM | 14.3 µM | 7.73 µM | 24.9 | 10.6 µM | 29.6 µM | 3.45 µM | > 28.8 | 12.9 µM | 31.2 µM | 3.73 µM | > 100
4 | O=C1CN2CCC1C/C2=C\c1ccnc2c(Cl)cccc12 (stereo not given) | 37 µM | > 100 µM | > 100 µM | > 100 µM | 85.7 µM | > 100 | 88.8 | > 100 | 85.3 µM | > 100 µM | > 100 µM | > 100 | 89 µM | > 100 µM | 32.2 µM | > 100 | > 100 µM | > 100 µM | 36.5 µM | > 100
5 | CCOC(=O)CCc1c(C)c2ccc(O)cc2oc1=O | – | > 100 µM | – | > 100 µM | – | > 100 | – | > 100 | – | > 100 µM | – | > 100 | – | > 100 µM | – | > 100 | – | > 100 µM | – | > 100
6 | Cc1cc(Nc2ncc(Cl)c(Nc3ccccc3S(=O)(=O)C(C)C)n2)c(OC(C)C)cc1C1CCNCC1 | 0.346 µM | 1.55 µM | 1.27 µM | 2.64 µM | 1.21 µM | 2.59 | 1.37 | 2.71 | 1.59 µM and 1.33 µM | 2.94 µM and 2.61 µM | 1.76 µM | 3.29 | 1.42 µM and 0.793 µM | 2.92 µM and 2.07 µM | 1.39 µM | 3.82 | 1.49 µM and 1.17 µM | 2.84 µM and 2.43 µM | 1.87 µM | 4.18
7 | CNC(=O)c1ccc(Nc2nc(OC3CCCC3)c3c(-c4ccc5nc(C)oc5c4)c[nH]c3n2)c(OC)c1 | 2.54 µM | > 100 µM | > 100 µM | > 100 µM | 0.0689 µM | > 100 | 14 | > 100 | 0.438 µM | > 100 µM | 1.32 µM | > 100 | 3.57 µM | > 100 µM | 0.746 µM | > 100 | 2.58 µM | > 100 µM | 0.124 µM | > 44.4
8 | Nc1ccn(C2OC(COP(=O)(O)O)C(O)C2O)c(=O)n1 (stereo not given) | – | > 100 µM | – | > 94.7 µM | – | > 100 | – | > 100 | – | > 41.4 µM | – | > 100 | – | > 100 µM | – | > 100 | – | > 71.3 µM | – | 0.0742
9 | Cn1c(Cc2ccccc2)nc2cc3ccccc3cc21 | 10.7 µM | 34.6 µM | 35.6 µM | > 100 µM | 26.8 µM | > 100 | 16 | 37.5 | 31.7 µM | > 100 µM | 18.7 µM | 39.1 | 18.8 µM | 59.6 µM | 37.4 µM | > 100 | 19.6 µM | 43.5 µM | 15 µM | 37.6
10 | Cc1c(N(C(=O)c2cc(-c3cc(Cl)ccc3C(=O)N3Cc4ccccc4C[C@H]3CN3CCOCC3)n(C)c2C)c2ccc(O)cc2)cc(C#N)n1C | 5.24 µM | 22.6 µM | 3.88 µM | 17.6 µM | 16.6 µM | > 100 | 20.2 | > 100 | 23.6 µM | > 100 µM | 19.5 µM | > 100 | 11.3 µM | > 100 µM | 10.8 µM | > 100 | 20.6 µM | > 100 µM | 8.02 µM | > 100
11 | OCC1OC(O)C(N=Cc2ccc3c(c2)OCO3)C(O)C1O (stereo not given) | – | > 100 µM | – | > 100 µM | – | > 100 | – | > 100 | – | > 100 µM | – | > 100 | – | > 100 µM | – | > 100 | – | > 100 µM | – | > 40.1
12 | CC1=Cc2cc3[n-]c(cc4nc(cc5[n-]c(cc1n2)c(C)c5CCC(=O)O)C(CCC(=O)O)=C4C)cc3C.[Cu+2] | > 1 µM and 13.6 µM | > 1 µM and 34.3 µM | > 1 µM and 15.4 µM | > 1 µM and 33.9 µM | > 1 µM and 52.7 µM | > 86.7 | 22.6 | 50.3 | > 1 µM and 38.8 µM | > 100 µM | > 1 µM and 57.7 µM | > 100 | 12.9 µM | 29.5 µM | > 1 µM and 13.6 µM | > 60.6 | > 1 µM and 6.04 µM | > 1 µM and 15.8 µM | > 1 µM and 12.1 µM | > 68.5
13 | CCOC(=O)c1ccc2[nH]c(Cc3[nH]c4ccc(C(=O)OCC)cc4c3C)c(C)c2c1 | 1.95 µM | 8.99 µM | 2.75 µM | 14.7 µM | 0.129 µM | 21.4 | 2.4 | 12.3 | 2.28 µM | 15.8 µM | 4.92 µM | 24.7 | 1.46 µM | 13.7 µM | 0.832 µM | 17.5 | 2.21 µM | 25.2 µM | 1.58 µM | 28.7
14 | COc1ccc(C(=O)c2ccc(OC)cc2OC)cc1 | 1.84 µM | 53.9 µM | 1.56 µM | 6.15 µM | 3.66 µM | > 100 | 6.6 | 90.2 | 6.26 µM | > 100 µM | 5.58 µM | > 100 | 4.38 µM | > 100 µM | 0.935 µM | > 100 | 5.67 µM | > 100 µM | 3.23 µM | > 100
15 | C=C1C(=O)O[C@H]2[C@H]1CC/C(COC(=O)NCCc1c[nH]c3ccccc13)=C\CC[C@@]1(C)O[C@@H]21 | 1.27 µM | 3.07 µM | 1.16 µM | 2.56 µM | 1.23 µM | 2.81 | 1.48 | 3.3 | 1.37 µM | 2.71 µM | 1.2 µM | 3.15 | 3.05 µM | 13 µM | 0.503 µM | 10.4 | 1.47 µM | 3.2 µM | 0.362 µM | 3.57
16 | CCCN1C(=O)/C(=C/c2ccc(O)cc2)SC1=Nc1ccccc1 | 20.3 µM | 46.5 µM | 23.2 µM | 51.4 µM | 16.9 µM | 37.5 | 16 | 36.6 | 18.2 µM | 34.9 µM | 18.4 µM | 35.5 | 28.9 µM | 59.8 µM | 92.1 µM | > 100 | 21 µM | 45.3 µM | > 100 µM | > 100
17 | C[C@]12CC[C@H]3[C@@H](CC=C4C[C@@H](O)CC[C@@]43C)[C@@H]1C/C(=C\c1cccc(OCCCn3ccnc3)c1)[C@@H]2O | 8.4 µM | 25.7 µM | 4.7 µM | 20.8 µM | 10.2 µM | 38.9 | 13.2 | 32 | 13.9 µM | 31.3 µM | 15.8 µM | 38 | 9.48 µM | 56.6 µM | 3.38 µM | > 58.4 | 13.2 µM | 29 µM | 13 µM | 68.7
18 | C/C=C/C/C=C/CCC(=O)C1OC1C(N)=O (stereo not given) | – | 29.4 µM | – | 21.7 µM | – | 25.9 | – | 31.1 | – | 28.5 µM | – | 39.8 | – | 28.7 µM | – | 36.8 | – | 29.3 µM | – | 98.3
19 | CN(C)c1ccc2[nH]c(O)c(C=Nc3ccc(S(N)(=O)=O)cc3)c2c1 | > 25 µM | > 25 µM | > 25 µM | > 25 µM | > 25 µM | > 25 | > 25 | > 25 | > 25 µM | > 25 µM | > 25 µM | > 25 | > 25 µM | > 25 µM | > 25 µM | > 25 | > 25 µM | > 25 µM | 17.9 µM | > 25
20 | C=C1C(=O)O[C@H]2[C@H]1CC/C(COC(=O)N[C@@H](Cc1c[nH]c3ccccc13)C(=O)OC)=C\CC[C@@]1(C)O[C@@H]21 | 1.42 µM | 2.98 µM | 0.998 µM | 2.29 µM | 1.45 µM | 3.91 | 1.41 | 3.16 | 1.16 µM | 2.44 µM | 1.37 µM | 3.1 | 1.45 µM | 3.41 µM | 0.362 µM | 5.18 | 1.38 µM | 2.84 µM | 0.621 µM | 3.18
21 | O=C1NC(=O)[C@H]2C3C=CC([C@@H]12)[C@@H]1C(=O)NC(=O)[C@H]31 | – | > 100 µM | – | > 100 µM | – | > 100 | – | > 100 | – | > 100 µM | – | > 100 | – | > 100 µM | – | > 100 | – | > 100 µM | – | > 100
